Assay results from the supplement of paper PMC10307832.

Tests used:
Assay in all cases: relative viability (nuclei count vs DMSO), 5 days (fraction); higher = more cells survive
AZD7762 = compound: NC(=O)Nc1cc(-c2cccc(F)c2)sc1C(=O)N[C@H]1CCCNC1 [AZD7762]
How it was run: (§1)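 Lung cancer cell lines were seeded into 1536-well plates, kept overnight at 37 °C and pinned with five library-drug doses (not always all listed) spaced by √10. After 5 days, nuclei were Hoechst-stained, imaged at 4× and counted with MetaXpress. Viability is treated-well nuclei over vehicle-well nuclei, taken as a median across plates. Plates needed control CV below 25% and at least one doubling.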

[1] = compound: O=C(O)c1ccc(-c2c[nH]c3ncc(-c4ccccc4)cc23)cc1C1CCCC1
How it was run: as §1

C-75 = compound: CCCCCCCC[C@H]1[C@@H](C(=C)C(=O)O1)C(=O)O [C-75]
How it was run: as §1

XAV939 = compound: Oc1nc(-c2ccc(C(F)(F)F)cc2)nc2c1CSCC2 [XAV939]
How it was run: as §1

Navitoclax = compound: CC1(C)CCC(c2ccc(Cl)cc2)=C(CN2CCN(c3ccc(C(=O)NS(=O)(=O)c4ccc(N[C@H](CCN5CCOCC5)CSc5ccccc5)c(S(=O)(=O)C(F)(F)F)c4)cc3)CC2)C1 [Navitoclax]
How it was run: as §1

| Cell Line | relative viability (AZD7762; 0.01 µM) | relative viability (AZD7762; 0.03162 µM) | relative viability (AZD7762; 0.1 µM) | relative viability (AZD7762; 0.3162 µM) | relative viability (AZD7762; 1 µM) | relative viability ([1]; 0.04 µM) | relative viability ([1]; 0.1265 µM) | relative viability ([1]; 0.4 µM) | relative viability ([1]; 1.265 µM) | relative viability (C-75; 0.08 µM) | relative viability (C-75; 0.253 µM) | relative viability (C-75; 0.8 µM) | relative viability (C-75; 2.53 µM) | relative viability (C-75; 8 µM) | relative viability (XAV939; 0.08 µM) | relative viability (XAV939; 0.253 µM) | relative viability (XAV939; 0.8 µM) | relative viability (XAV939; 2.53 µM) | relative viability (Navitoclax; 0.005 µM) | relative viability (Navitoclax; 0.01581 µM) | relative viability (Navitoclax; 0.05 µM) | relative viability (Navitoclax; 0.1581 µM) | relative viability (Navitoclax; 0.5 µM) | relative viability (Navitoclax; 0.5 µM, anchor plate) | relative viability (AZD7762; 0.2 µM, anchor plate) |
| --- | --- | --- | --- | --- | --- | --- | --- | --- | --- | --- | --- | --- | --- | --- | --- | --- | --- | --- | --- | --- | --- | --- | --- | --- | --- |
| IA-LM | 1.12 | 1.02 | 1.15 | 1.01 | 0.708 | 0.921 | 1.1 | 1.07 | 0.887 | 0.917 | 1.14 | 0.87 | 0.676 | 0.853 | 0.937 | 0.864 | 0.935 | 0.701 | 0.941 | 1.07 | 0.915 | 1 | 0.977 | 0.755 |  |
| SW 900 | 0.876 | 0.957 | 1.17 | 0.891 | 0.475 | 0.846 | 0.915 | 0.777 | 0.741 | 0.786 | 1.11 | 0.719 | 0.695 | 0.867 | 0.954 | 0.832 | 0.928 | 0.677 | 0.841 | 1.06 | 0.667 | 0.742 | 0.925 |  | 0.68 |
| EBC-1 | 1.1 | 0.98 | 0.993 | 0.939 | 0.576 | 1.02 | 1.14 | 0.923 | 0.633 | 1.04 | 1.08 | 0.956 | 0.84 | 0.757 | 1.05 | 0.901 | 0.882 | 0.817 | 0.931 | 1.17 | 0.958 | 1.1 | 0.718 | 0.451 |  |
| NCI-H2347 | 1.16 | 1.04 | 1.24 | 1.21 | 0.922 | 1.1 | 1.08 | 1.02 | 0.906 | 0.991 | 1.09 | 0.973 | 0.862 | 1.02 | 1.19 | 0.978 | 0.964 | 0.84 | 1.02 | 1.12 | 0.906 | 1.02 | 1.03 | 0.757 | 0.812 |
| A549 | 1 | 0.982 | 0.994 | 0.974 | 0.507 | 0.957 | 1.03 | 0.99 | 0.818 | 0.944 | 1.14 | 0.874 | 0.83 | 0.913 | 1.05 | 0.798 | 0.911 | 0.811 | 0.974 | 1.05 | 0.999 | 0.956 | 0.935 | 1.23 |  |
| NCI-H322M | 0.956 | 1.06 | 0.928 | 0.683 | 0.397 | 1.01 | 1.02 | 0.956 | 0.886 | 0.964 | 1.22 | 0.905 | 0.839 | 0.952 | 1.03 | 0.835 | 0.852 | 0.655 | 1.03 | 1.1 | 0.926 | 0.974 | 1.06 | 1.24 | 0.589 |
| NCI-H2087 | 1.02 | 1.08 | 1.26 | 1.23 | 1.24 | 1.12 | 1.14 | 1.04 | 0.794 | 1.06 | 0.963 | 0.941 | 0.915 | 0.924 | 1.32 | 0.781 | 1.07 | 0.849 | 1.01 | 1.16 |  | 1.01 | 1.09 | 0.952 | 1.24 |
| LCLC-97TM1 | 1.05 | 0.98 | 1.11 | 0.926 | 0.588 | 1.04 | 0.957 | 0.98 | 0.901 | 0.963 | 1.09 | 0.95 | 0.813 | 0.622 | 0.975 | 0.764 | 0.879 | 0.944 | 0.966 | 1.06 | 0.915 | 0.94 | 1.02 | 0.502 | 0.281 |
| NCI-H1915 | 1.01 | 1.01 | 1.05 | 0.99 | 0.89 | 1.02 | 0.974 | 0.955 | 0.857 | 0.987 | 1.05 | 0.959 | 0.862 | 0.823 | 1.03 | 0.973 | 1.01 | 0.96 | 0.968 | 0.963 | 1.05 | 0.923 | 0.886 | 0.789 | 0.72 |
| NCI-H3122 | 1.01 | 1.02 | 1.01 | 0.88 | 1.04 | 0.986 | 1.04 | 0.959 | 0.946 | 1 | 1 | 0.996 | 0.692 | 0.992 | 1.01 | 0.936 | 1.02 | 0.966 | 1.01 | 0.965 | 1.06 | 0.989 | 0.972 | 1.01 | 0.983 |
| NCI-H1703 | 0.767 | 0.35 | 0.276 | 0.174 | 0.194 | 0.949 | 1.04 | 1.11 | 1.02 | 0.993 | 0.929 | 0.83 | 0.869 | 0.817 | 1.05 | 0.98 | 0.929 | 0.812 | 0.907 | 1.05 | 0.933 | 0.994 | 0.939 | 1.18 | 0.132 |
| NCI-H460 | 1.06 | 1 | 1.01 | 0.954 | 0.387 | 1.01 | 1.05 | 0.991 | 0.92 | 1.01 | 1.04 | 0.922 | 0.768 | 0.946 | 0.996 | 0.88 | 0.944 | 0.929 | 0.988 | 1.01 | 0.951 | 0.977 | 0.963 | 1.08 | 0.618 |
| SW 1573 | 1.13 | 1.05 | 1.08 | 0.96 | 0.607 | 0.981 | 1.03 | 0.89 | 0.706 | 0.981 | 1.05 | 0.946 | 0.758 | 0.855 | 1.1 | 0.857 | 0.908 | 0.81 | 1.03 | 1.11 | 1.06 | 0.901 | 0.956 | 0.973 |  |
